Experimental data taken from patent US9040458B2, “Safening composition of 6-(trisubstituded phenyl)-4-amino-2-pyridinecarboxylate herbicides and cloquintocet-mexyl for cereal crops” (Dow AgroSciences LLC, priority 2008, dated 2015).
Where a name gives a salt, the structure may show the parent alone.

Columns and labels:
[1] = system: HORVS = Hordeum vulgare (spring barley); test: Postemergence herbicidal safening, greenhouse, visual injury; type: in vivo; conditions: 20-22 d
Procedure: (§1) Seeds of the desired test plant species were planted in Sun Gro MetroMix® 306 planting mixture, which typically has a pH of 6.0 to 6.8 and an organic matter content of about 30 percent, in plastic pots with a surface area of 103.2 square centimeters (cm^2). When required to ensure good germination and healthy plants, a fungicide treatment and/or other chemical or physical treatment was applied. The plants were grown for 7-36 days (d) in a greenhouse with an approximate […] photoperiod which was maintained at about 18° C. during the day and 17° C. during the night. Nutrients and water were added on a regular basis and supplemental lighting was provided with overhead metal halide 1000-Watt lamps as necessary. The plants were employed for testing when they reached the second or third true leaf stage.
(§2) Weighed amounts of esters (methyl) or salts (TEA [triethylammonium], potassium [K]) of 4-amino-3-chloro-6-(4-chloro-2-fluoro-3-methoxyphenyl)pyridine-2-carboxylic acid (Compound 1) were dissolved in a volume of 97:3 volume/volume (v/v) acetone/dimethylsulfoxide (DMSO) to obtain stock solutions. […] The concentrated stock solutions were diluted with an aqueous mixture of 1.5% v/v of Agri-dex crop oil concentrate to provide the appropriate application rates. Compound requirements are based upon a 12 mL application volume at a rate of 187 liters per hectare (L/ha). Stocks solutions of the safeners were prepared following the same procedure. Spray solutions of the safeners and experimental compound mixtures were prepared by adding the appropriate volume of both stock solutions to the appropriate amount of dilution solution to form a 12 mL spray solution with active ingredients in two-way combinations. Formulated compounds were applied to the plant material with an overhead Mandel track sprayer equipped with 8002E nozzles calibrated to deliver 187 L/ha over an application area of 0.503 square meters (m^2) at a spray height of 18 inches (43 centimeters (cm)) above average plant canopy. Control plants were sprayed in the same manner with the solvent blank.
(§3) The treated plants and control plants were placed in a greenhouse as described above and watered by sub-irrigation to prevent wash-off of the test compounds. After 20-22 d, the condition of the test plants as compared with that of the control plants was determined visually and scored on a scale of 0 to 100 percent where 0 corresponds to no injury and 100 corresponds to complete kill.
(§4) Colby's equation was used to determine the herbicidal effects expected from the mixtures (Colby, S. R., Calculation of the synergistic and antagonistic response of herbicide combinations. Weeds 1967, 15, 20-22.).
(§5) The following equation was used to calculate the expected activity of mixtures containing two active ingredients, A and B: Expected=A+B−(A×B/100)
(§6) A=observed efficacy of active ingredient A at the same concentration as used in the mixture.
(§7) B=observed efficacy of active ingredient B at the same concentration as used in the mixture.

[2] = system: TRZAS = Triticum aestivum (spring wheat); test: as above; type: in vivo; conditions: 20-22 d
Procedure: as §1, §2, §3, §4, §5, §6, §7

[3] = system: TRZAW = Triticum aestivum (winter wheat); test: as above; type: in vivo; conditions: applied alone at 140 g/ha; 20-22 d; listed as 1 Methyl Ester
Procedure: as §1, §2, §3, §4, §5, §6, §7

HORVW (winter barley) = test: as above; type: in vivo, Hordeum vulgare; conditions: applied alone at 140 g/ha; 20-22 d; listed as 1 Methyl Ester
Procedure: as §1, with “stage. […]” for “stage.”
as §3, with “kill. […]” for “kill.”

[4] = system: GALAP = Galium aparine (cleavers); test: Postemergence herbicidal activity, greenhouse, visual injury; type: in vivo; conditions: applied alone at 140 g/ha; 20-22 d
Procedure: as §1, §2, §3, §4, §5, §6, §7

[5] = system: KCHSC = Kochia scoparia (kochia); test: as above; type: in vivo; conditions: applied alone at 140 g/ha, 20-22 d
Procedure: as §1, §2, §3, §4, §5, §6, §7

[6] = system: MATCH = Matricaria chamomila (scented mayweed); test: as above; type: in vivo; conditions: applied alone at 140 g/ha, 20-22 d
Procedure: as §1, §2, §3, §4, §5, §6, §7

[7] = system: SASKR = Salsola iberica (Russian thistle); test: as above; type: in vivo; conditions: applied alone at 140 g/ha, 20-22 d
Procedure: as §1, §2, §3, §4, §5, §6, §7

[8] = system: VERPE = Veronica persica (bird's-eye speedwell); test: as above; type: in vivo; conditions: applied alone at 140 g/ha, 20-22 d
Procedure: as §1, §2, §3, §4, §5, §6, §7

[9] = system: VIOTR = Viola tricolor (wild pansy); test: as above; type: in vivo; conditions: applied alone at 140 g/ha, 20-22 d
Procedure: as §1, §2, §3, §4, §5, §6, §7

[10] = system: LAMPU (purple deadnettle); test: as above; type: in vivo, Lamium purpureum; conditions: applied alone at 35 g/ha; 20-22 d
Procedure: as §1, §2, §3, §4, §5, §6, §7

PAPRH (corn poppy) = test: as above; type: in vivo, Papaver rhoeas; conditions: applied alone at 35 g/ha; 20-22 d
Procedure: as §1, §2, §3, §4, §5, §6, §7

[11] = applied alone at 8.75 g/ha, listed as 1 Methyl Ester
[12] = applied alone at 35 g/ha, listed as 1 Methyl Ester
[13] = applied alone at 35 g/ha, listed as (I) Methyl ester
[14] = applied alone at 140 g/ha, listed as 1 Methyl Ester
[15] = applied alone at 8.75 g/ha, listed as (1) K-salt
[16] = applied alone at 35 g/ha, listed as (1) K-salt
[17] = applied alone at 140 g/ha, listed as (1) K-salt

COc1c(Cl)ccc(-c2cc(N)c(Cl)c(C(=O)O)n2)c1F [Compound 1 Methyl Ester, 4-amino-3-chloro-6-(4-chloro-2-fluoro-3-methoxyphenyl)pyridine-2-carboxylic acid]
HORVS Ob (observed injury) [1, 11]: 22%
HORVS Ob (observed injury) [1, 12]: 38%
HORVS Ob (observed injury) [1, 13]: 43%
HORVS Ob (observed injury) [1, 14]: 42%
TRZAS Ob (observed injury) [2, 11]: 13%
TRZAS Ob (observed injury) [2, 12]: 43%
TRZAS Ob (observed injury) [2, 13]: 45%
TRZAS Ob (observed injury) ([2]; applied alone at 70 g/ha, listed as 1 Methyl Ester): 25%
TRZAS Ob (observed injury) [2, 14]: 37%
TRZAW Ob (observed injury) [3]: 32%
HORVW Ob (observed injury) (HORVW (winter barley)): 42%
GALAP Ob (observed injury) [4]: 100%
KCHSC Ob (observed injury) ([5]; listed as 1 Methyl Ester): 100%
MATCH Ob (observed injury) ([6]; listed as 1 Methyl Ester): 82%
SASKR Ob (observed injury) ([7]; listed as 1 Methyl Ester): 91%
VERPE Ob (observed injury) ([8]; listed as 1 Methyl Ester): 91%
VIOTR Ob (observed injury) ([9]; listed as 1 Methyl Ester): 67%
LAMPU Ob (observed injury) [10]: 100%
PAPRH Ob (observed injury) (PAPRH (corn poppy)): 97%

COc1c(Cl)ccc(-c2cc(N)c(Cl)c(C(=O)O)n2)c1F [Compound (1) K-salt, 4-amino-3-chloro-6-(4-chloro-2-fluoro-3-methoxyphenyl)pyridine-2-carboxylic acid]
HORVS Ob (observed injury) [1, 15]: 25%
HORVS Ob (observed injury) [1, 16]: 38%
HORVS Ob (observed injury) [1, 17]: 45%
TRZAS Ob (observed injury) [2, 15]: 15%
TRZAS Ob (observed injury) [2, 16]: 43%
TRZAS Ob (observed injury) ([2]; applied alone at 70 g/ha, listed as (1) K-salt): 11%
TRZAS Ob (observed injury) [2, 17]: 52%
KCHSC Ob (observed injury) ([5]; listed as (1) K-salt): 100%
MATCH Ob (observed injury) ([6]; listed as (1) K-salt): 88%
SASKR Ob (observed injury) ([7]; listed as (1) K-salt): 87%
VERPE Ob (observed injury) ([8]; listed as (1) K-salt): 87%
VIOTR Ob (observed injury) ([9]; listed as (1) K-salt): 63%
